The structures appear in SMILES notation. ≈ marks a conversion by molar mass, not a printed value.

One assay has as its system Mycobacterium tuberculosis (Mtb) H37Rv ATCC 27294. Kind of assay: microbe, parasite or virus in culture. The format is cell-based. Particulars: Mycobacterium tuberculosis, Table 1; read-out: Mtb MIC.
For `COc1ncnc(Cn2cc(C(=O)NCCF)c3ncc(Br)cc32)c1C` [Compound 20, 6-bromo-N-(2-fluoroethyl)-1-((6-methoxy-5-methylpyrimidin-4-yl)methyl)-1H-pyrrolo[3,2-b]pyridine-3-carboxamide], the MIC worked out at 0.781 µM (≈ 0.33 µg/mL).
As to `Cc1cnc2c(C(=O)NCCF)cn(Cc3nccc(OCC(F)(F)F)c3C)c2c1` [Compound 21, N-(2-fluoroethyl)-6-methyl-1-((3-methyl-4-(2,2,2-trifluoroethoxy)pyridin-2-yl)methyl)-1H-pyrrolo[3,2-b]pyridine-3-carboxamide], the MIC came to 1.56 µM (≈ 0.662 µg/mL).
Consider `COc1ncc(C(F)(F)F)cc1Cn1cc(C(=O)NC[C@H](C)F)c2ncc(C)cc21` [Compound 22, (S)—N-(2-fluoropropyl)-1-((2-methoxy-5-(trifluoromethyl)pyridin-3-yl)methyl)-6-methyl-1H-pyrrolo[3,2-b]pyridine-3-carboxamide], for which the MIC was below 0.391 µM.
The same measure, in the same setting: the result for `COc1ncnc(Cn2cc(C(=O)NCCOC(F)(F)F)c3ncccc32)c1C` [Compound 23, 1-((6-methoxy-5-methylpyrimidin-4-yl)methyl)-N-(2-(trifluoromethoxy)ethyl)-1H-pyrrolo[3,2-b]pyridine-3-carboxamide] reads 3.12 µM (≈ 1.28 µg/mL); that for `COc1ncc(F)cc1Cn1cc(C(=O)NC[C@H](C)F)c2ncc(C)cc21` [Compound 24, (S)-1-((5-fluoro-2-methoxypyridin-3-yl)methyl)-N-(2-fluoropropyl)-6-methyl-1H-pyrrolo[3,2-b]pyridine-3-carboxamide], below 0.391 µM.
Take `COc1ncnc(Cn2cc(NC(=O)CC3CC3)c3ncccc32)c1C` [Compound 25, 2-cyclopropyl-N-(1-((6-methoxy-5-methylpyrimidin-4-yl)methyl)-1H-pyrrolo[3,2-b]pyridin-3-yl)acetamide]: the MIC turned out to be 25 µM (≈ 8.79 µg/mL).
`Cc1cnc2c(C(=O)NCCF)cn(Cc3cc(F)c(C)nc3C)c2c1` [Compound 26, 1-((5-fluoro-2,6-dimethylpyridin-3-yl)methyl)-N-(2-fluoroethyl)-6-methyl-1H-pyrrolo[3,2-b]pyridine-3-carboxamide]: the MIC amounted to 3.12 µM (≈ 1.12 µg/mL).
Turning to `Cc1cnc2c(C(=O)NCCO)cn(Cc3nccc(OCC(F)(F)F)c3C)c2c1` [Compound 27, N-(2-hydroxyethyl)-6-methyl-1-((3-methyl-4-(2,2,2-trifluoroethoxy)pyridin-2-yl)methyl)-1H-pyrrolo[3,2-b]pyridine-3-carboxamide], the MIC was determined as 3.12 µM (≈ 1.32 µg/mL).
Turning to `COc1ncnc(Cn2cc(C(=O)NC[C@@H](C)O)c3ncc(C)cc32)c1C` [Compound 28, (R)—N-(2-hydroxypropyl)-1-((6-methoxy-5-methylpyrimidin-4-yl)methyl)-6-methyl-1H-pyrrolo[3,2-b]pyridine-3-carboxamide], the MIC was 6.25 µM (≈ 2.31 µg/mL).
Still for that read-out and setting: the result for `Cc1cnc2c(C(=O)NCCF)cn(Cc3ncnc(N(C)C)c3C)c2c1` [Compound 29, 1-((6-(dimethylamino)-5-methylpyrimidin-4-yl)methyl)-N-(2-fluoroethyl)-6-methyl-1H-pyrrolo[3,2-b]pyridine-3-carboxamide] reads 1.56 µM (≈ 0.578 µg/mL); that for `Cc1cnc2c(C(=O)NCCO)cn(Cc3ncnc(OC(F)F)c3C)c2c1` [Compound 35, 1-((6-(Difluoromethoxy)-5-methylpyrimidin-4-yl)methyl)-N-(2-hydroxyethyl)-6-methyl-1H-pyrrolo[3,2-b]pyridine-3-carboxamide], below 0.39 µM.
In the case of `COc1cnc2c(C(=O)NCCF)cn(Cc3ncnc(OC)c3C)c2c1` [Compound 36, N-(2-fluoroethyl)-6-methoxy-1-((6-methoxy-5-methylpyrimidin-4-yl)methyl)-1H-pyrrolo[3,2-b]pyridine-3-carboxamide], the MIC is below 0.39 µM.

The same assay, now with this note: Table 1; read-out: Mtb MIC.
As for `COc1ncnc(Cn2cc(C(=O)NCC(F)F)c3ncc(C)cc32)c1C` [Compound 33, N-(2,2-difluoroethyl)-1-((6-methoxy-5-methylpyrimidin-4-yl)methyl)-6-methyl-1H-pyrrolo[3,2-b]pyridine-3-carboxamide], the MIC is listed as below 0.39 µM.

For the origin of these results see patent US9163020B2, “Azaindole compounds, synthesis thereof, and methods of using the same” (Global Alliance for TB Drug Development, priority 2013, dated 2015).
